# Measured values reported in patent publication US10870647B2, “Imidazopyridine derivative, method for preparing same, and pharmaceutical composition containing same as active ingredient for preventing or treating cancer” (DAEGU-GYEONGBUK MEDICAL INNOVATION FOUNDATION, priority 2016, dated 2020).
# Where two headings read alike, the source gives them in different places.
# Columns and labels:
# Experiment in all cases: Kinase selectivity, scanMAX Kinase assay panel (DiscoverX), % control at 1 uM
# Format in all cases: binding
# [1] = target: T1, scanMAX Kinase assay panel (Homo sapiens, UniProt Q02156); details: PRKCE; 1 uM; read-out: Percent Control (%)
# T1 construct: purchased DiscoverX
# T1 sequence (Q02156 1-737): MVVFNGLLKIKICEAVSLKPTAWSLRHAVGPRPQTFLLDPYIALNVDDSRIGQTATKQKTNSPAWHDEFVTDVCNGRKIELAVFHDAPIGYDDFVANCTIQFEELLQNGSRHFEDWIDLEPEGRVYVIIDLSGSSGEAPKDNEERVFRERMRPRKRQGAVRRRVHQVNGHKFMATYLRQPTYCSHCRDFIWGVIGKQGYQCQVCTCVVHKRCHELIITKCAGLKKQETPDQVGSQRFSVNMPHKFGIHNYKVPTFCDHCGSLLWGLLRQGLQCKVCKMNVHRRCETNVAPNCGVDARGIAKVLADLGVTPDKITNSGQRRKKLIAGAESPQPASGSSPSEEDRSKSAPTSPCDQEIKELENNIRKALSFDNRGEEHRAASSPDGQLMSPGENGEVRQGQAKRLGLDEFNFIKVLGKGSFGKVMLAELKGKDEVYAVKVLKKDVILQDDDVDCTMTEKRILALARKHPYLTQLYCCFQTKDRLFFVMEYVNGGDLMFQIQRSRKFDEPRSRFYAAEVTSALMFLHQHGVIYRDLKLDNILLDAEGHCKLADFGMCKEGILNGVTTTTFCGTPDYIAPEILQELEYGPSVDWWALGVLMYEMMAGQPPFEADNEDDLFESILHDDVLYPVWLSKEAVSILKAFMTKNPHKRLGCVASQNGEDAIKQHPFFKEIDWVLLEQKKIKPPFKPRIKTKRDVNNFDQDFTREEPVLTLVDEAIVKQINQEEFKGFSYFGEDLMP
# Method in brief: (§1)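 Each kinase was first exposed to the test compound at 1 uM in DMSO. Signal was then normalised to positive and negative controls to give % control. Finally, any enzyme showing <35% control was judged inhibited.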
# [2] = target: T2, scanMAX Kinase assay panel (Homo sapiens, UniProt P42336, H1047L); details: PIK3CA (H1047L); 1 uM; read-out: Percent Control (%)
# T2 construct: purchased DiscoverX
# T2 sequence (P42336 whole entry H1047L): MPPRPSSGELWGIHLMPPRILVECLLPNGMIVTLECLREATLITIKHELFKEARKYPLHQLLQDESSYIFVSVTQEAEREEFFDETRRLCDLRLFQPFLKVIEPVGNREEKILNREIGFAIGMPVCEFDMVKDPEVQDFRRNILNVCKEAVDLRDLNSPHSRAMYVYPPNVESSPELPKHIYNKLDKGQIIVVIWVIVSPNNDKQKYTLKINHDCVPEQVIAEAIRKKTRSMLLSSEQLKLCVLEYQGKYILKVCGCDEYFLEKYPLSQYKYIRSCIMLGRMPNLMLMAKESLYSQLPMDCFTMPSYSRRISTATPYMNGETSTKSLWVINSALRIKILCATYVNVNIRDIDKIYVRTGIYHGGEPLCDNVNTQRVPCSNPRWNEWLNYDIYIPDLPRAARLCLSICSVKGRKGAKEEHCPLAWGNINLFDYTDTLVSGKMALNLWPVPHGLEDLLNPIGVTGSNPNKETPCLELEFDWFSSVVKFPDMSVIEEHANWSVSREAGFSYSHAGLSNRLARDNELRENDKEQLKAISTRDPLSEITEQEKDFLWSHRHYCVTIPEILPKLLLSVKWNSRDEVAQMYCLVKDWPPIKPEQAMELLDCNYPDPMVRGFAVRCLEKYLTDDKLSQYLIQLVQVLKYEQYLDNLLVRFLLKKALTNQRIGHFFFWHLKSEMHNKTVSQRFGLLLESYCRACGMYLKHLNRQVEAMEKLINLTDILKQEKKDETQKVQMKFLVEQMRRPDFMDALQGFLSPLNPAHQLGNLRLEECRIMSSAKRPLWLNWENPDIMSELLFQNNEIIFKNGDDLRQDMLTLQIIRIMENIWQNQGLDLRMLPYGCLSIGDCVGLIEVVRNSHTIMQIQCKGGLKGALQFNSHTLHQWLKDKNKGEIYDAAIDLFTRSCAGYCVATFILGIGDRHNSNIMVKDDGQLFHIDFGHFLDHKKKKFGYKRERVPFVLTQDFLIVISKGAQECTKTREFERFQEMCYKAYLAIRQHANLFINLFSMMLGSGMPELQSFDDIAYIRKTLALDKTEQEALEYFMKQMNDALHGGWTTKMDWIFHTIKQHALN
# Method in brief: as §1
# [3] = target: T3, scanMAX Kinase assay panel (Homo sapiens, UniProt Q8N752); details: CSNK1A1L; 1 uM; read-out: Percent Control (%)
# T3 construct: purchased DiscoverX
# T3 sequence (Q8N752 1-337): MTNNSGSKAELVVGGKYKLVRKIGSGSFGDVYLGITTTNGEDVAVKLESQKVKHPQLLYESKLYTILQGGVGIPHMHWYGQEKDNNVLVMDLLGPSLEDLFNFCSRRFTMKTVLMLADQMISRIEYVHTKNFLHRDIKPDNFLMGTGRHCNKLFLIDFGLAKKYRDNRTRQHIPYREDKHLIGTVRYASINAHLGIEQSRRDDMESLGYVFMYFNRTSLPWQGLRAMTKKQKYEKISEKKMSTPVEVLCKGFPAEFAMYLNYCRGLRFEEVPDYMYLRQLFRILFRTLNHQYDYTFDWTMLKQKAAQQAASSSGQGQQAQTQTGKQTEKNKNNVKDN
# Method in brief: as §1
# [4] = target: T4, scanMAX Kinase assay panel (Homo sapiens, UniProt Q8NFD2); details: ANKK1; 1 uM; read-out: Percent Control (%)
# T4 construct: purchased DiscoverX
# T4 sequence (Q8NFD2 1-765): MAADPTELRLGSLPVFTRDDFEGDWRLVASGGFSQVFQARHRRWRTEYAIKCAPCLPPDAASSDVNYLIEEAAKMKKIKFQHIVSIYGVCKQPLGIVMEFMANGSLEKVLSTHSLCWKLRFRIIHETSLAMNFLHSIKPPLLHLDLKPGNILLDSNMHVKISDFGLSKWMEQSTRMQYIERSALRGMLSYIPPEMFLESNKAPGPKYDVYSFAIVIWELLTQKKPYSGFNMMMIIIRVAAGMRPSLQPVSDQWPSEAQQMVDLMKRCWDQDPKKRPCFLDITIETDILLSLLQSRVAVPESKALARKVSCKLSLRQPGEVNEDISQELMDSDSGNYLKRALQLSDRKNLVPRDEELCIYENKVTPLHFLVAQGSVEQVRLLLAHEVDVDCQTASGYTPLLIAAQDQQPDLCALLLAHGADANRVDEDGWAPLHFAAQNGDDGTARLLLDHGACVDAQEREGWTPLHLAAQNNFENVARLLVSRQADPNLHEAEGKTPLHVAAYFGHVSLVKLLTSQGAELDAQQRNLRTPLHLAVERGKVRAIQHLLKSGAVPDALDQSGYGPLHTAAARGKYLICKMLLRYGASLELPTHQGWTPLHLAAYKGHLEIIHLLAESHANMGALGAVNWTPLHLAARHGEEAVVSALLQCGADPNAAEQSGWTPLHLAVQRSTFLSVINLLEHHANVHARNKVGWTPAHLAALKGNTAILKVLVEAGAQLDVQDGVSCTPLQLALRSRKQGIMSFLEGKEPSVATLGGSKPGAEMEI
# Method in brief: as §1
# [5] = target: T5, scanMAX Kinase assay panel (Homo sapiens, UniProt P10721); details: 1 uM, read-out: Percent Control (%)
# T5 construct: purchased DiscoverX
# T5 sequence (P10721 26-976): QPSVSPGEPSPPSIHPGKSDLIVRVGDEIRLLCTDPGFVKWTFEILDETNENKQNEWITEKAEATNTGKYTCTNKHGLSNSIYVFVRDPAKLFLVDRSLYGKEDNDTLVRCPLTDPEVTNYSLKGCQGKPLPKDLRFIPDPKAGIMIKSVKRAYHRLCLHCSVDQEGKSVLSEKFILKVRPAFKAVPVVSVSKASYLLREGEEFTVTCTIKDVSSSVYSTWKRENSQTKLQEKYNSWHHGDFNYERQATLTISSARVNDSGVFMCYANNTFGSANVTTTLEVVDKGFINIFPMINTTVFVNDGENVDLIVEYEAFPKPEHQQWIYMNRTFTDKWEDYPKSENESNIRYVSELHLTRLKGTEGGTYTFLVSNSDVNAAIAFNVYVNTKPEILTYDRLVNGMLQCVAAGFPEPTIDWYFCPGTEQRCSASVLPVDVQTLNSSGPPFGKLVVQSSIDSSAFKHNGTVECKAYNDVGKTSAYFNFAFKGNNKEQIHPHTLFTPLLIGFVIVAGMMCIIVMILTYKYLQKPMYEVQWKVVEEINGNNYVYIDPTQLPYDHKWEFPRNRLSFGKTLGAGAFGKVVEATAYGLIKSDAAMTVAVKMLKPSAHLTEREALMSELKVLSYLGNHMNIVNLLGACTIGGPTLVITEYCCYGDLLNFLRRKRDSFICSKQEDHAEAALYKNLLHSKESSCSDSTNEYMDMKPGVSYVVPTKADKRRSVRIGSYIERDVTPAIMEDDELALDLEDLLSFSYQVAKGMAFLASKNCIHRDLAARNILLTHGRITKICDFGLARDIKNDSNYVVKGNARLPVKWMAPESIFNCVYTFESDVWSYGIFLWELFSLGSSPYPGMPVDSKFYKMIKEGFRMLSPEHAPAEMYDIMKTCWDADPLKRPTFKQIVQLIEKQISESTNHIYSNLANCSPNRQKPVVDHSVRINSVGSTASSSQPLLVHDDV
# Method in brief: as §1
# [6] = target: T6, scanMAX Kinase assay panel (Homo sapiens, UniProt P78368); details: CSNK1G2; 1 uM; read-out: Percent Control (%)
# T6 construct: purchased DiscoverX
# Method in brief: as §1
# [7] = target: T7, scanMAX Kinase assay panel (Homo sapiens, UniProt Q9H4A3); details: WNK1; 1 uM; read-out: Percent Control (%)
# T7 construct: purchased DiscoverX
# T7 sequence (Q9H4A3 whole entry): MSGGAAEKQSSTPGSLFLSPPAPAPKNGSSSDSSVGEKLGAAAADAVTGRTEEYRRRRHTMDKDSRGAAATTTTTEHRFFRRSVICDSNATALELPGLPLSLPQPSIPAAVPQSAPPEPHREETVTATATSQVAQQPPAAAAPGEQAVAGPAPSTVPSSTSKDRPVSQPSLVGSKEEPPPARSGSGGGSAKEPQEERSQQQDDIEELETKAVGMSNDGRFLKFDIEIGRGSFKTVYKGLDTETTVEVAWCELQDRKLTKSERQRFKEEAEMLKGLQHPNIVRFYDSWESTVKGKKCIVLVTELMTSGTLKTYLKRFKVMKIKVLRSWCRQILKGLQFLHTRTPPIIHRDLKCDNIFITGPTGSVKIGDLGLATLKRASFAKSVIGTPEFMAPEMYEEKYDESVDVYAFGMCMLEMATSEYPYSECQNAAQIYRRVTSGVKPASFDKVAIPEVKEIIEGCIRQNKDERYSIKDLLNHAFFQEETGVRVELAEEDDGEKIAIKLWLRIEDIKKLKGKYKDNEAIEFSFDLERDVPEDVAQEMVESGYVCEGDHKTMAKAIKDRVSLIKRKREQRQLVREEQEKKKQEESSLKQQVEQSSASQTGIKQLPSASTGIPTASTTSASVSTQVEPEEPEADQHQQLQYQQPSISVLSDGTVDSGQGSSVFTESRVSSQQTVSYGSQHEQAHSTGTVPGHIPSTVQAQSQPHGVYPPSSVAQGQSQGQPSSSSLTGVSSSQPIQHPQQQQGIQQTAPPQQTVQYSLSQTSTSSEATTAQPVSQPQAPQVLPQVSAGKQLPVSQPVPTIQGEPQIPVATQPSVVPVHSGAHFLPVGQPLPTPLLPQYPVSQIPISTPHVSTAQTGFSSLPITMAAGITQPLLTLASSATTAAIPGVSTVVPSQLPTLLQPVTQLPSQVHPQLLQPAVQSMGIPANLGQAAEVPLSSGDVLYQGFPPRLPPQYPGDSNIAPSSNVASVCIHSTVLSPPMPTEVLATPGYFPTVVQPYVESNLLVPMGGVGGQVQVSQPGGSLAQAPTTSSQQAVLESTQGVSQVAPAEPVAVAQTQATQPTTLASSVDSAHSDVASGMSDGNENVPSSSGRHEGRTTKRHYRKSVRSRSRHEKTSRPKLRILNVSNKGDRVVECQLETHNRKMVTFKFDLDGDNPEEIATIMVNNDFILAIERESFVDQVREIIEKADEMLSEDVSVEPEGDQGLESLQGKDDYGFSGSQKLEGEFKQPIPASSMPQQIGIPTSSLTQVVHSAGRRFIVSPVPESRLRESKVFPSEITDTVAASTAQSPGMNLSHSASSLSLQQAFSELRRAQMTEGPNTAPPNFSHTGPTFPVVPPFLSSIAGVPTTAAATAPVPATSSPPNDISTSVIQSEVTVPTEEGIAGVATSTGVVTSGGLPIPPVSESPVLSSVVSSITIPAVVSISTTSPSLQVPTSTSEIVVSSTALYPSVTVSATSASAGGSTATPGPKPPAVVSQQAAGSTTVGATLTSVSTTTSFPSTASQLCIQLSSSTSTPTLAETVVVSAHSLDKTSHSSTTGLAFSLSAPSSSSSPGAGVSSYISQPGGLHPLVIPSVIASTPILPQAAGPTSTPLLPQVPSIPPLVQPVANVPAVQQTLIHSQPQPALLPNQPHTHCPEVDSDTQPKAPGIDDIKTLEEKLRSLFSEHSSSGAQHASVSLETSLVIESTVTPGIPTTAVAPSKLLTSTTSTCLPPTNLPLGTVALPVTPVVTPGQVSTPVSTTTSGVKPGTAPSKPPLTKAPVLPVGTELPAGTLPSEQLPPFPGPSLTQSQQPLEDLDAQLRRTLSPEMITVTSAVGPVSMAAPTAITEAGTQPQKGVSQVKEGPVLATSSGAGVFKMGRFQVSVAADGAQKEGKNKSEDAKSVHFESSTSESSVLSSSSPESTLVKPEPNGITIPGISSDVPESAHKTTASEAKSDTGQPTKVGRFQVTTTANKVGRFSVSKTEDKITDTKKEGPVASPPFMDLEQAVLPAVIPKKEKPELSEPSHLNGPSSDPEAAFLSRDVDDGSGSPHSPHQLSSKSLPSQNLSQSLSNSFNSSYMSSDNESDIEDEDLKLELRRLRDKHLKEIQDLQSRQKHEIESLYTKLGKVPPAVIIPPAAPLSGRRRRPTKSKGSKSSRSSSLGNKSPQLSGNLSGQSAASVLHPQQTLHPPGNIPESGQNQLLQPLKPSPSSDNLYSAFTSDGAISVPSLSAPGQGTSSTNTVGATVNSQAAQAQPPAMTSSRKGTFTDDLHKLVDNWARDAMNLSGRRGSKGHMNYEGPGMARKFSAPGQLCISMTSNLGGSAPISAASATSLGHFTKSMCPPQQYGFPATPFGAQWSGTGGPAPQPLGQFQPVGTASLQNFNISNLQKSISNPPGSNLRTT
# Method in brief: as §1
# [8] = target: T8, scanMAX Kinase assay panel (Homo sapiens, UniProt P53779); details: JNK3; 1 uM; read-out: Percent Control (%)
# T8 construct: purchased DiscoverX
# T8 sequence (P53779 whole entry): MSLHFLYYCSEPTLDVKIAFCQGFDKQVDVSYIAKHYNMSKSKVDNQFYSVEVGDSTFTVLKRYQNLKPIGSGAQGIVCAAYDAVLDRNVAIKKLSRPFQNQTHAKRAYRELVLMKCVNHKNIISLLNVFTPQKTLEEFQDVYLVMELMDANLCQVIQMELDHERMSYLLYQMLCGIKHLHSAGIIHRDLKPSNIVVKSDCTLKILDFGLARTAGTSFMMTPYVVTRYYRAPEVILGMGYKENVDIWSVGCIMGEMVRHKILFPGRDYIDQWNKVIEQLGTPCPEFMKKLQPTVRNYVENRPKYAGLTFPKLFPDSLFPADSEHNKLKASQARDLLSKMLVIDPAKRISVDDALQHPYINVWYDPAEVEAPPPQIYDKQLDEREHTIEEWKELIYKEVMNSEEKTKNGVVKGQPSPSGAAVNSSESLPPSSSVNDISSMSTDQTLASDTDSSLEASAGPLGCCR
# Method in brief: as §1
# [9] = target: T9, scanMAX Kinase assay panel (Homo sapiens, UniProt P10721, D816H); details: KIT (D816H); 1 uM; read-out: Percent Control (%)
# T9 construct: purchased DiscoverX
# T9 sequence (P10721 26-976 D816H): as the sequence (P10721 26-976) above, with D791H counted along it
# Method in brief: as §1
Structure (SMILES),remaining binding at 1 µM [1] [%],remaining binding at 1 µM [2] [%],remaining binding at 1 µM [3] [%],remaining binding at 1 µM [4] [%],remaining binding at 1 µM ([5]; KIT-autoinhibited) [%],remaining binding at 1 µM ([5]; KIT) [%],remaining binding at 1 µM [6] [%],remaining binding at 1 µM [7] [%],remaining binding at 1 µM [8] [%],remaining binding at 1 µM [9] [%]
"Cc1ccc(C(=O)Nc2ccc(CN3CCN(C)CC3)c(C(F)(F)F)c2)cc1C#Cc1cnc2c(Nc3cnn(C)c3)cccn12 [Example 1, 4-methyl-3-((8-((1-methyl-1H-pyrazol-4-yl)amino)imidazo[1,2-a]pyridin-3-yl)ethynyl)-N-(4-((4-methylpiperazin-1-yl)methyl)-3-(trifluoromethyl)phenyl)benzamide]",67,100,93,4,77,0,91,55,19,7
"Cc1cn(-c2cc(NC(=O)c3ccc(C)c(C#Cc4cnc5c(Nc6cnn(C)c6)cccn45)c3)cc(C(F)(F)F)c2)cn1 [Example 12, 4-methyl-N-(3-(4-methyl-1H-imidazol-1-yl)-5-(trifluoromethyl)phenyl)-3-((8-((1-methyl-1H-pyrazol-4-yl)amino)imidazo[1,2-a]pyridin-3-yl)ethynyl)benzamide]",71,100,70,100,98,1,94,100,98,70
Cc1ccc(NC(=O)C2(C(=O)Nc3ccc(F)cc3)CC2)cc1C#Cc1cnc2c(Nc3cnn(C(C)C)c3)cccn12 [Example 78],90,92,100,97,93,0,100,92,100,63
